Target: Integrin alpha-V/beta-3 (Homo sapiens, UniProt P05106+P06756)
Test: Binding affinity towards vitronectin receptor (alpha V-beta3) was determined
Assay type: protein-complex assay

Sequence of Integrin alpha-V/beta-3 (P05106 27-788 limits assumed): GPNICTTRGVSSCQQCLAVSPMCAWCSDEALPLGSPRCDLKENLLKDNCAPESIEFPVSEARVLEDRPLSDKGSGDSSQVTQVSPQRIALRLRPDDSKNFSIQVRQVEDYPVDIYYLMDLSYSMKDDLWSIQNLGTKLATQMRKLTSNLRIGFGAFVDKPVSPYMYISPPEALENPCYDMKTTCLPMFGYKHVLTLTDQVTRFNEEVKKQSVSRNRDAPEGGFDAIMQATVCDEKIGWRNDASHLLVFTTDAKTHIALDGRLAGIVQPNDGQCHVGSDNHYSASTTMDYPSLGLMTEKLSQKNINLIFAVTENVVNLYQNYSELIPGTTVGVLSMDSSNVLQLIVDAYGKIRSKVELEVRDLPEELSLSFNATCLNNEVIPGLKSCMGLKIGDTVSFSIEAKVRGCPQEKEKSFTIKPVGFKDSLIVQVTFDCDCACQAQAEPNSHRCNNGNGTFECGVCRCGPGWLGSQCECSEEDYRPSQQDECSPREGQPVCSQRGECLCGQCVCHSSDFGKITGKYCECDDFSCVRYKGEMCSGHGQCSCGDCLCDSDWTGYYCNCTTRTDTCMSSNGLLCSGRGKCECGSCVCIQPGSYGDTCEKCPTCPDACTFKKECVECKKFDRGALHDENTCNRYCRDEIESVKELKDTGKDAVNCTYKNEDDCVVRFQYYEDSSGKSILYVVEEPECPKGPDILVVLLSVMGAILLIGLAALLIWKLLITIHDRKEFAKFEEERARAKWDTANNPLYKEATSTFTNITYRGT
Sequence of Integrin alpha-V/beta-3 (P06756 31-889 limits assumed): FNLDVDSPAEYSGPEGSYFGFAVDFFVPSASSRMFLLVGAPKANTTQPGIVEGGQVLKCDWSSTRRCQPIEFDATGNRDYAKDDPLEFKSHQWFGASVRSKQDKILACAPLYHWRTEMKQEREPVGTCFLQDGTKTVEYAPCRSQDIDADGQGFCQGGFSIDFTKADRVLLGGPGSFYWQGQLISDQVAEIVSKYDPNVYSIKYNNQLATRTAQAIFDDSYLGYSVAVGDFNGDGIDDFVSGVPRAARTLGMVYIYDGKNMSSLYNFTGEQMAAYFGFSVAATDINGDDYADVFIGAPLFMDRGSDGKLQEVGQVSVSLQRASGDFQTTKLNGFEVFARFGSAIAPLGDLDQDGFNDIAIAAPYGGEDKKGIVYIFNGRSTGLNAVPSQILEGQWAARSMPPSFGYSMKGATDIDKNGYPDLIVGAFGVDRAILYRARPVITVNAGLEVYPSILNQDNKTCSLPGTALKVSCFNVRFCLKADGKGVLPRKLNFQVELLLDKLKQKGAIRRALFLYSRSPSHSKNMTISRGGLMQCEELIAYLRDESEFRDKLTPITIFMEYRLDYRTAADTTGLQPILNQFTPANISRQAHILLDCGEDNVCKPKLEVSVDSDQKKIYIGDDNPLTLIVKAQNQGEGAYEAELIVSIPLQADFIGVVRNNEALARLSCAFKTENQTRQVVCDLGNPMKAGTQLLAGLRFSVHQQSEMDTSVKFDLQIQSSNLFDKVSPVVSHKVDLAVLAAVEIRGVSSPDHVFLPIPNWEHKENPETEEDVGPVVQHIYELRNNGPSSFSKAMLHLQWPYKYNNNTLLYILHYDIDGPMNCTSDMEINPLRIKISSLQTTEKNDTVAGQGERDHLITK
Sequence of Integrin alpha-V/beta-3 (P06756 891-1048 limits assumed): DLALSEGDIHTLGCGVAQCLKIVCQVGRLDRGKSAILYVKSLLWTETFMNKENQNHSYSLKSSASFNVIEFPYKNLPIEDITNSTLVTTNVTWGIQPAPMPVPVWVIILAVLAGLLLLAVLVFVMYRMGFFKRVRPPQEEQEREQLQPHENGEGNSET

Ki | SMILES
500 nM | CCCNC(=O)Nc1cccc(-c2ccc(C[C@H](NS(=O)(=O)c3cc(OC)ccc3OC)C(=O)O)cc2)c1
100 nM | CCCNC(=O)Nc1cccc(-c2ccc(C[C@H](NS(=O)(=O)c3ccc(Cl)cc3C(F)(F)F)C(=O)O)cc2)c1
850 nM | CCCNC(=O)Nc1cccc(-c2ccc(C[C@H](NC(=O)NCc3ccccc3)C(=O)O)cc2)c1
> 10000 nM | CCCNC(=O)Nc1cccc(-c2ccc(C[C@H](NC(=O)c3ccc(OC)cc3)C(=O)O)cc2)c1
1000 nM | Cc1cc(C)c(S(=O)(=O)N[C@@H](Cc2ccc(-c3cccc(NC(=O)NCc4ccc(C(F)(F)F)cc4)c3)cc2)C(=O)O)c(C)c1
10 nM | Cc1cc(C)c(S(=O)(=O)N[C@@H](Cc2ccc(-c3cccc(NC(=O)NCC(C)C)c3)cc2)C(=O)O)c(C)c1
800 nM | CCCNC(=O)Nc1cccc(-c2ccc(C[C@H](NC(=O)OCc3ccccc3)C(=O)O)cc2)c1
120 nM | CCCNC(=O)Nc1cccc(-c2ccc(C[C@H](NC(=O)OCC)C(=O)O)cc2)c1
14 nM | Cc1cc(C)c(S(=O)(=O)N[C@@H](Cc2ccc(-c3cccc(NC(=O)NC(C)C)c3)cc2)C(=O)O)c(C)c1
> 10000 nM | CCCNC(=O)Nc1cccc(-c2ccc(C[C@H](NS(=O)(=O)c3ccccc3S(C)(=O)=O)C(=O)O)cc2)c1
8 nM | Cc1cc(C)c(S(=O)(=O)N[C@@H](Cc2ccc(-c3cccc(NC(=O)NCCSC(F)(F)F)c3)cc2)C(=O)O)c(C)c1
75 nM | CCCNC(=O)Nc1cccc(-c2ccc(C[C@H](NS(C)(=O)=O)C(=O)O)cc2)c1
74 nM | CCC(C)NC(=O)Nc1cccc(-c2ccc(C[C@H](NS(=O)(=O)c3c(C)cc(C)cc3C)C(=O)O)cc2)c1 (stereo partly drawn)
900 nM | CCCNC(=O)Nc1cccc(-c2ccc(C[C@H](NC(=O)OCC(C)C)C(=O)O)cc2)c1
170 nM | CCCNC(=O)Nc1cccc(-c2ccc(C[C@H](NS(=O)(=O)c3cccc(Cl)c3Cl)C(=O)O)cc2)c1
60 nM | Cc1cc(C)c(S(=O)(=O)N[C@@H](Cc2ccc(-c3cccc(NC(=O)NCc4ccccc4)c3)cc2)C(=O)O)c(C)c1
> 10000 nM | CCCNC(=O)Nc1cccc(-c2cccc(C[C@H](NS(=O)(=O)c3c(C)cc(C)cc3C)C(=O)O)c2)c1
80 nM | Cc1cc(C)c(S(=O)(=O)N[C@@H](Cc2ccc(-c3cccc(NC(N)=O)c3)cc2)C(=O)O)c(C)c1
800 nM | CCCNC(=O)Nc1cccc(-c2ccc(C[C@H](NC(=O)OCC(C)(C)C)C(=O)O)cc2)c1

Ki | SMILES
> 10000 nM | Cc1cc(C)c(S(=O)(=O)N[C@@H](Cc2ccc(-c3cccc(NC(=O)NCc4ccccn4)c3)cc2)C(=O)O)c(C)c1
210 nM | CCCNC(=O)Nc1cccc(-c2ccc(C[C@H](NC(=O)OC3CCCC3)C(=O)O)cc2)c1
1700 nM | CCCNC(=O)Nc1cccc(-c2ccc(C[C@H](NS(=O)(=O)c3cc(Cl)ccc3OC)C(=O)O)cc2)c1
80 nM | Cc1cc(C)c(S(=O)(=O)N[C@@H](Cc2ccc(-c3cccc(NC(=O)NCC(F)(F)C(F)(F)F)c3)cc2)C(=O)O)c(C)c1
11 nM | Cc1cc(C)c(S(=O)(=O)N[C@@H](Cc2ccc(-c3cccc(NC(=N)N)c3)cc2)C(=O)O)c(C)c1
> 10000 nM | Cc1cc(C)c(S(=O)(=O)N[C@@H](Cc2ccc(-c3cccc(NC(=O)Nc4nc5ccccc5[nH]4)c3)cc2)C(=O)O)c(C)c1
10 nM | Cc1cc(C)c(S(=O)(=O)N[C@@H](Cc2ccc(-c3ccc(C)c(NC(=O)NC4CC4)c3)cc2)C(=O)O)c(C)c1
70 nM | CCCNC(=O)Nc1cccc(-c2ccc(C[C@H](NS(=O)(=O)c3ccccc3C)C(=O)O)cc2)c1
> 10000 nM | CCCNC(=O)Nc1cccc(-c2ccc(C[C@H](NS(=O)(=O)c3ccccc3C(F)(F)F)C(=O)O)cc2)c1
560 nM | CCCNC(=O)Nc1cccc(-c2ccc(C[C@H](NC(N)=O)C(=O)O)cc2)c1
100 nM | Cc1cc(C)c(S(=O)(=O)N[C@@H](Cc2ccc(-c3ccc(C)c(NC(=O)NC4CCCC4)c3)cc2)C(=O)O)c(C)c1
750 nM | CCCNC(=O)Nc1cccc(-c2ccc(C[C@H](NS(=O)(=O)c3ccc(OC)c(OC)c3)C(=O)O)cc2)c1
4 nM | CCCNC(=O)Nc1cccc(-c2ccc(C[C@H](NS(=O)(=O)c3c(C)cc(C)cc3C)C(=O)O)cc2)c1
160 nM | CNC(=O)Nc1cccc(-c2ccc(C[C@H](NS(=O)(=O)c3c(C)cc(C)cc3C)C(=O)O)cc2)c1
1 nM | CCCNC(=O)Nc1cccc(-c2ccc(C[C@H](NS(=O)(=O)C[C@]34CCC(CC3=O)C4(C)C)C(=O)O)cc2)c1
20 nM | Cc1cc(C)c(S(=O)(=O)N[C@@H](Cc2ccc(-c3cccc(NC(=O)NCC(F)(F)F)c3)cc2)C(=O)O)c(C)c1
300 nM | CCCNC(=O)Nc1cccc(-c2ccc(C[C@H](NS(=O)(=O)Cc3ccccc3)C(=O)O)cc2)c1
2.5 nM | Cc1cc(C)c(S(=O)(=O)N[C@@H](Cc2ccc(-c3cccc(NC(=O)NC4CC4)c3)cc2)C(=O)O)c(C)c1

SMILES | Ki
CCCNC(=O)Nc1cccc(-c2ccc(C[C@H](NC(=O)Oc3ccc(OC)cc3)C(=O)O)cc2)c1 | 300 nM

Reference: ChEMBL document CHEMBL1136646, “Biphenyls as potent vitronectin receptor antagonists. Part 2: biphenylalanine ureas” (Bioorg Med Chem Lett, 2003)
